ChEMBL document CHEMBL1155237, “Selective inhibitors of the mutant B-Raf pathway: discovery of a potent and orally bioavailable aminoisoquinoline” (J Med Chem, 2009)

How the values were obtained:
[1] = molecular target: Vascular endothelial growth factor receptor 2 (Homo sapiens, UniProt P35968); assay: Inhibition of KDR
[2] = molecular target: MAP/microtubule affinity-regulating kinase 4 (Homo sapiens) (UniProt Q96L34); assay: Inhibition of MARK4 assessed as enzyme activity at 1 uM relative to untreated control; parameters: scale not given: the % may be the effect or the level left
Sequence of MAP/microtubule affinity-regulating kinase 4 (Homo sapiens) (Q96L34 whole entry): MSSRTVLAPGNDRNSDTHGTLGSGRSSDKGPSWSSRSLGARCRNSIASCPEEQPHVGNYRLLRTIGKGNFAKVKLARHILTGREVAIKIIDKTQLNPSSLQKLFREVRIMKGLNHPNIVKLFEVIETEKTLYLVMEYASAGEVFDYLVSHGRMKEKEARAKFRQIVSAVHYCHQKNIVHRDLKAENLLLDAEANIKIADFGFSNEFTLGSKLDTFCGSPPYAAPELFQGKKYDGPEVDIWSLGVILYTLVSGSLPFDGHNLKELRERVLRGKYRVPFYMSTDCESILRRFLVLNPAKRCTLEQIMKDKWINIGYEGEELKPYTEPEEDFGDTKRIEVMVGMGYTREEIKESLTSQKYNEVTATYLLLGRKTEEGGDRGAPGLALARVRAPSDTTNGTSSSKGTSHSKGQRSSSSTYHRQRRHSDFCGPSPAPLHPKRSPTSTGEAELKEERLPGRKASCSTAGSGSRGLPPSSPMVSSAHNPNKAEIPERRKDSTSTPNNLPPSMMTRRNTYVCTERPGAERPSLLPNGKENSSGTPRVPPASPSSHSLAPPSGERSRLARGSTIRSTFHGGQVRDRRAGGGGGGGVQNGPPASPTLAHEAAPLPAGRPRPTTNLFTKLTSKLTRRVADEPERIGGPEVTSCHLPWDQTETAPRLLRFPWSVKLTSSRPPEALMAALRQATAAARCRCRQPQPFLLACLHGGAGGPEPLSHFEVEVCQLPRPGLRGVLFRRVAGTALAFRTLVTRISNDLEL

[3] = molecular target: Dual specificity mitogen-activated protein kinase kinase 3 (Homo sapiens) (UniProt P46734); assay: Inhibition of MEK3 assessed as enzyme activity at 1 uM relative to untreated control; parameters: scale not given: the % may be the effect or the level left
Sequence of Dual specificity mitogen-activated protein kinase kinase 3 (Homo sapiens) (P46734 whole entry): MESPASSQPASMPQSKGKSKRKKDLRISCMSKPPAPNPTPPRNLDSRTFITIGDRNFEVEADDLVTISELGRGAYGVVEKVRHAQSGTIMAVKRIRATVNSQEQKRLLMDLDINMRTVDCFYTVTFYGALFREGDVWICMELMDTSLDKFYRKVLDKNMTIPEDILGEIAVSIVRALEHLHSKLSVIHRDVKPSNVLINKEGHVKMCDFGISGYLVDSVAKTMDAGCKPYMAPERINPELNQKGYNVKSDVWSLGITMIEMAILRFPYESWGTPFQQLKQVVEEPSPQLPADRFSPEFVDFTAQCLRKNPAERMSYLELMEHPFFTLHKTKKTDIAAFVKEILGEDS

[4] = molecular target: Maternal embryonic leucine zipper kinase (Homo sapiens) (UniProt Q14680); assay: Inhibition of MELK assessed as enzyme activity at 1 uM relative to untreated control; parameters: scale not given: the % may be the effect or the level left
[5] = molecular target: Mitogen-activated protein kinase kinase kinase 10 (Homo sapiens) (UniProt Q02779); assay: Inhibition of MLK2 assessed as enzyme activity at 1 uM relative to untreated control; parameters: scale not given: the % may be the effect or the level left
[6] = molecular target: Serine/threonine-protein kinase 4 (Homo sapiens) (UniProt Q13043); assay: Inhibition of MST1 assessed as enzyme activity at 1 uM relative to untreated control; parameters: scale not given: the % may be the effect or the level left
[7] = molecular target: Macrophage-stimulating protein receptor (Homo sapiens) (UniProt Q04912); assay: Inhibition of MST1R assessed as enzyme activity at 1 uM relative to untreated control; parameters: scale not given: the % may be the effect or the level left
[8] = molecular target: Serine/threonine-protein kinase 38-like (Homo sapiens) (UniProt Q9Y2H1); assay: Inhibition of NDR2 assessed as enzyme activity at 1 uM relative to untreated control; parameters: scale not given: the % may be the effect or the level left
[9] = molecular target: Serine/threonine-protein kinase Nek9 (Homo sapiens) (UniProt Q8TD19); assay: Inhibition of NEK9 assessed as enzyme activity at 1 uM relative to untreated control; parameters: scale not given: the % may be the effect or the level left
[10] = molecular target: Mitogen-activated protein kinase 9 (Homo sapiens) (UniProt P45984); assay: Inhibition of JNK2 assessed as enzyme activity at 1 uM relative to untreated control; parameters: scale not given: the % may be the effect or the level left
[11] = molecular target: LIM domain kinase 1 (Homo sapiens) (UniProt P53667); assay: Inhibition of LIMK1 assessed as enzyme activity at 1 uM relative to untreated control; parameters: scale not given: the % may be the effect or the level left
[12] = molecular target: LIM domain kinase 2 (Homo sapiens) (UniProt P53671); assay: Inhibition of LIMK2 assessed as enzyme activity at 1 uM relative to untreated control; parameters: scale not given: the % may be the effect or the level left
Sequence of LIM domain kinase 2 (Homo sapiens) (P53671 whole entry, looked up, the tested form may be a part): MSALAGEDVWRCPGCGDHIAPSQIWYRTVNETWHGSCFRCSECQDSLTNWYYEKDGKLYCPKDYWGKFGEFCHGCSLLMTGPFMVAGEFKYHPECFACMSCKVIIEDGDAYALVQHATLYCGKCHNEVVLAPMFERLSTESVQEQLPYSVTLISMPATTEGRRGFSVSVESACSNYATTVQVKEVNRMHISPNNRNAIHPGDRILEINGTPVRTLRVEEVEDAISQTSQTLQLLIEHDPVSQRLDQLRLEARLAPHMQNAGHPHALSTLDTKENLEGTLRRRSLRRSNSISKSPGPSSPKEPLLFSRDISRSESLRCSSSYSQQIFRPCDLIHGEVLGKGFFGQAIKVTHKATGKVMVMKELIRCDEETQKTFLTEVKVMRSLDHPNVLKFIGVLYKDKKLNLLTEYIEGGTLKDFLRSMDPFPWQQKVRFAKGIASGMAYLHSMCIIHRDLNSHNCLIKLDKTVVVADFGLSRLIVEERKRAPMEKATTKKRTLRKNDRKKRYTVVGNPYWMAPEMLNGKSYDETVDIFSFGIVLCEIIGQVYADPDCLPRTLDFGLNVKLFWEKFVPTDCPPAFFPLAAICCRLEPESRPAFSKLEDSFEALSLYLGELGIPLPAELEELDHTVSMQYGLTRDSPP

[13] = molecular target: Serine/threonine-protein kinase STK11 (Homo sapiens) (UniProt Q15831); assay: Inhibition of LKB1 assessed as enzyme activity at 1 uM relative to untreated control; parameters: scale not given: the % may be the effect or the level left
Sequence of Serine/threonine-protein kinase STK11 (Homo sapiens) (Q15831 whole entry): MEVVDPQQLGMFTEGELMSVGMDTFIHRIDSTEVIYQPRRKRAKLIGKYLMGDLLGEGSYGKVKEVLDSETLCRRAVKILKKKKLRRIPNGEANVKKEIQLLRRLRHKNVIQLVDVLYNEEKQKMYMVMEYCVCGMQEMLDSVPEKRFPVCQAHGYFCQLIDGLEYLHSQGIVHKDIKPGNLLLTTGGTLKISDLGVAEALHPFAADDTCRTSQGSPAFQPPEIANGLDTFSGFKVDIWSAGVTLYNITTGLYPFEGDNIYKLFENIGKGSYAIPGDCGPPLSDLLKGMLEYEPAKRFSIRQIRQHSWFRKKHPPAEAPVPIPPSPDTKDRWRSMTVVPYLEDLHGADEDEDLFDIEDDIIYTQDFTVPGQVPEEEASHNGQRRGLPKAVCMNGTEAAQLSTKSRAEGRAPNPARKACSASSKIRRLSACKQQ

[14] = molecular target: Leukocyte tyrosine kinase receptor (Homo sapiens) (UniProt P29376); assay: Inhibition of LTK assessed as enzyme activity at 1 uM relative to untreated control; parameters: scale not given: the % may be the effect or the level left
[15] = molecular target: MAP kinase-activated protein kinase 5 (Homo sapiens) (UniProt Q8IW41); assay: Inhibition of MAPKAPK5 assessed as enzyme activity at 1 uM relative to untreated control; parameters: scale not given: the % may be the effect or the level left
[16] = molecular target: Calcium/calmodulin-dependent protein kinase type 1G (Homo sapiens) (UniProt Q96NX5); assay: Inhibition of CAMK1G assessed as enzyme activity at 1 uM relative to untreated control; parameters: scale not given: the % may be the effect or the level left
[17] = molecular target: Calcium/calmodulin-dependent protein kinase type II subunit alpha (Homo sapiens) (UniProt Q9UQM7); assay: Inhibition of CAMK2A assessed as enzyme activity at 1 uM relative to untreated control; parameters: scale not given: the % may be the effect or the level left
[18] = molecular target: Tyrosine-protein kinase CSK (Homo sapiens) (UniProt P41240); assay: Inhibition of CSK assessed as enzyme activity at 1 uM relative to untreated control; parameters: scale not given: the % may be the effect or the level left
[19] = molecular target: Serine/threonine-protein kinase D3 (Homo sapiens) (UniProt O94806); assay: Inhibition of PRKD3 assessed as enzyme activity at 1 uM relative to untreated control; parameters: scale not given: the % may be the effect or the level left
[20] = molecular target: Serine/threonine-protein kinase RIO2 (Homo sapiens) (UniProt Q9BVS4); assay: Inhibition of RIOK2 assessed as enzyme activity at 1 uM relative to untreated control; parameters: scale not given: the % may be the effect or the level left
[21] = molecular target: Ribosomal protein S6 kinase alpha-2 (Homo sapiens) (UniProt Q15349); assay: Inhibition of RPS6KA2 kinase domain 1 assessed as enzyme activity at 1 uM relative to untreated control; parameters: scale not given: the % may be the effect or the level left
[22] = molecular target: Uncharacterized serine/threonine-protein kinase SBK3 (Homo sapiens) (UniProt P0C264); assay: Inhibition of SgK110 assessed as enzyme activity at 1 uM relative to untreated control; parameters: scale not given: the % may be the effect or the level left
[23] = molecular target: Tyrosine-protein kinase Srms (Homo sapiens) (UniProt Q9H3Y6); assay: Inhibition of SRMS assessed as enzyme activity at 1 uM relative to untreated control; parameters: scale not given: the % may be the effect or the level left
[24] = molecular target: SRSF protein kinase 2 (Homo sapiens) (UniProt P78362); assay: Inhibition of SRPK2 assessed as enzyme activity at 1 uM relative to untreated control; parameters: scale not given: the % may be the effect or the level left
[25] = molecular target: Ephrin type-B receptor 2 (Homo sapiens) (UniProt P29323); assay: Inhibition of EPHB2 assessed as enzyme activity at 1 uM relative to untreated control; parameters: scale not given: the % may be the effect or the level left
[26] = molecular target: Fibroblast growth factor receptor 1 (Homo sapiens) (UniProt P11362); assay: Inhibition of FGFR1 assessed as enzyme activity at 1 uM relative to untreated control; parameters: scale not given: the % may be the effect or the level left
[27] = molecular target: Receptor-type tyrosine-protein kinase FLT3 (Homo sapiens) (UniProt P36888); assay: Inhibition of FLT3 assessed as enzyme activity at 1 uM relative to untreated control; parameters: scale not given: the % may be the effect or the level left
[28] = system: Receptor-type tyrosine-protein kinase FLT3 (Homo sapiens), P36888 [D835Y]; assay: Inhibition of FLT3 D835Y mutant assessed as enzyme activity at 1 uM relative to untreated control; parameters: scale not given: the % may be the effect or the level left
[29] = molecular target: Tyrosine-protein kinase ITK/TSK (Homo sapiens) (UniProt Q08881); assay: Inhibition of ITK assessed as enzyme activity at 1 uM relative to untreated control; parameters: scale not given: the % may be the effect or the level left
[30] = molecular target: Serine/threonine-protein kinase DCLK3 (Homo sapiens) (UniProt Q9C098); assay: Inhibition of DCAMKL3 assessed as enzyme activity at 1 uM relative to untreated control; parameters: scale not given: the % may be the effect or the level left
Sequence of Serine/threonine-protein kinase DCLK3 (Homo sapiens) (Q9C098 whole entry): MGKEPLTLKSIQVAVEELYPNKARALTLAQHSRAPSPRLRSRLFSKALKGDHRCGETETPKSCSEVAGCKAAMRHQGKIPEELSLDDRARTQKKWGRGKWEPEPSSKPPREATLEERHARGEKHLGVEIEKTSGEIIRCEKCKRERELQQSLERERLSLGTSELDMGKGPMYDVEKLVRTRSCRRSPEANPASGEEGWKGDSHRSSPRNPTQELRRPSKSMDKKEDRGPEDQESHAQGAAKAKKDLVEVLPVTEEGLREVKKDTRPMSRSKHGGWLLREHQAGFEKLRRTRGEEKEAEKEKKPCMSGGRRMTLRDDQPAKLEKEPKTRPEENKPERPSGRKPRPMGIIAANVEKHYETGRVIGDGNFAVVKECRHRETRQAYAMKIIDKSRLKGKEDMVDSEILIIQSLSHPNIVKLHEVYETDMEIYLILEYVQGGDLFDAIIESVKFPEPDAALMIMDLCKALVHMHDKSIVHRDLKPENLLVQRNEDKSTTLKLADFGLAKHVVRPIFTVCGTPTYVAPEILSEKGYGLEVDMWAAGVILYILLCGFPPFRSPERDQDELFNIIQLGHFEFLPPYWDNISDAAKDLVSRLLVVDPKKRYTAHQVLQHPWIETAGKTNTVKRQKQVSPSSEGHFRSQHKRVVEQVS

[31] = molecular target: Serine/threonine-protein kinase 17A (Homo sapiens) (UniProt Q9UEE5); assay: Inhibition of DRAK1 assessed as enzyme activity at 1 uM relative to untreated control; parameters: scale not given: the % may be the effect or the level left
Sequence of Serine/threonine-protein kinase 17A (Homo sapiens) (Q9UEE5 whole entry): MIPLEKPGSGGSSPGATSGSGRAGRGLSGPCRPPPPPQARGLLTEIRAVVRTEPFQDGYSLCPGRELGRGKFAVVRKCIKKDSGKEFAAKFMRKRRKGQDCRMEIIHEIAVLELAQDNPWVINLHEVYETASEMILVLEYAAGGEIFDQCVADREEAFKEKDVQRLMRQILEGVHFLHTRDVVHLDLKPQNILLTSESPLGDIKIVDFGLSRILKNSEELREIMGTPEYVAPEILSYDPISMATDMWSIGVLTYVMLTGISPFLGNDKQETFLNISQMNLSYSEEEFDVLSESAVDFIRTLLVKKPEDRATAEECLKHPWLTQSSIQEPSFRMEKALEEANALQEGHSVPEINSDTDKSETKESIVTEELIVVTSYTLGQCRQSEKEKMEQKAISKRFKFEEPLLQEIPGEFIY

[32] = molecular target: Cyclin-dependent kinase 15 (Homo sapiens) (UniProt Q96Q40); assay: Inhibition of PFTAIRE2 assessed as enzyme activity at 1 uM relative to untreated control; parameters: scale not given: the % may be the effect or the level left
[33] = molecular target: Phosphorylase b kinase gamma catalytic chain, skeletal muscle/heart isoform (Homo sapiens) (UniProt Q16816); assay: Inhibition of PHKG1 assessed as enzyme activity at 1 uM relative to untreated control; parameters: scale not given: the % may be the effect or the level left
Sequence of Phosphorylase b kinase gamma catalytic chain, skeletal muscle/heart isoform (Homo sapiens) (Q16816 whole entry, looked up, canonical isoform): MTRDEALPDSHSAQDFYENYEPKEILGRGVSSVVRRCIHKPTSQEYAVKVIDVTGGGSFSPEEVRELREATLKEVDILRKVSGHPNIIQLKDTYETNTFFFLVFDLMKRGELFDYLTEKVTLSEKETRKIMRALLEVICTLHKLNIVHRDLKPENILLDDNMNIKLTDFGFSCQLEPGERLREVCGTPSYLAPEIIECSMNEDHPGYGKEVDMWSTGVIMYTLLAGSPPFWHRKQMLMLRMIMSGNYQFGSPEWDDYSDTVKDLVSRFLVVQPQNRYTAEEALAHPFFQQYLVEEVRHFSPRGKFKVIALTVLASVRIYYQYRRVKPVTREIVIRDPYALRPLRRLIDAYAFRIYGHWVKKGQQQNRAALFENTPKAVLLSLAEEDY

[34] = molecular target: Serine/threonine-protein kinase pim-2 (Homo sapiens) (UniProt Q9P1W9); assay: Inhibition of PIM2 assessed as enzyme activity at 1 uM relative to untreated control; parameters: scale not given: the % may be the effect or the level left
[35] = molecular target: Serine/threonine-protein kinase N2 (Homo sapiens) (UniProt Q16513); assay: Inhibition of PKN2 assessed as enzyme activity at 1 uM relative to untreated control; parameters: scale not given: the % may be the effect or the level left
[36] = molecular target: Aurora kinase A (Homo sapiens) (UniProt O14965); assay: Inhibition of AURKA assessed as enzyme activity at 1 uM relative to untreated control; parameters: scale not given: the % may be the effect or the level left
Sequence of Aurora kinase A (Homo sapiens) (O14965 whole entry): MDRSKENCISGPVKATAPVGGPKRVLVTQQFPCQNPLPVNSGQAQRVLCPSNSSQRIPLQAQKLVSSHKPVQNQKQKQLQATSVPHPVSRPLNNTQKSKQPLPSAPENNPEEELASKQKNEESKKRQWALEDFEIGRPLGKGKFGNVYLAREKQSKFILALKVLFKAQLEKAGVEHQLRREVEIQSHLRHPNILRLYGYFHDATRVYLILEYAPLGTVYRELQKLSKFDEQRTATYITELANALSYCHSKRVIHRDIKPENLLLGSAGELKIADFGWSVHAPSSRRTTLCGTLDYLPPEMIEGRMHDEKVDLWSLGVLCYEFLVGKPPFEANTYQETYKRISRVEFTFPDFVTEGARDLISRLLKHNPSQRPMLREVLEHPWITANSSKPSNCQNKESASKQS

[37] = molecular target: Serine/threonine-protein kinase tousled-like 1 (Homo sapiens) (UniProt Q9UKI8); assay: Inhibition of TLK1 assessed as enzyme activity at 1 uM relative to untreated control; parameters: scale not given: the % may be the effect or the level left
Sequence of Serine/threonine-protein kinase tousled-like 1 (Homo sapiens) (Q9UKI8 whole entry): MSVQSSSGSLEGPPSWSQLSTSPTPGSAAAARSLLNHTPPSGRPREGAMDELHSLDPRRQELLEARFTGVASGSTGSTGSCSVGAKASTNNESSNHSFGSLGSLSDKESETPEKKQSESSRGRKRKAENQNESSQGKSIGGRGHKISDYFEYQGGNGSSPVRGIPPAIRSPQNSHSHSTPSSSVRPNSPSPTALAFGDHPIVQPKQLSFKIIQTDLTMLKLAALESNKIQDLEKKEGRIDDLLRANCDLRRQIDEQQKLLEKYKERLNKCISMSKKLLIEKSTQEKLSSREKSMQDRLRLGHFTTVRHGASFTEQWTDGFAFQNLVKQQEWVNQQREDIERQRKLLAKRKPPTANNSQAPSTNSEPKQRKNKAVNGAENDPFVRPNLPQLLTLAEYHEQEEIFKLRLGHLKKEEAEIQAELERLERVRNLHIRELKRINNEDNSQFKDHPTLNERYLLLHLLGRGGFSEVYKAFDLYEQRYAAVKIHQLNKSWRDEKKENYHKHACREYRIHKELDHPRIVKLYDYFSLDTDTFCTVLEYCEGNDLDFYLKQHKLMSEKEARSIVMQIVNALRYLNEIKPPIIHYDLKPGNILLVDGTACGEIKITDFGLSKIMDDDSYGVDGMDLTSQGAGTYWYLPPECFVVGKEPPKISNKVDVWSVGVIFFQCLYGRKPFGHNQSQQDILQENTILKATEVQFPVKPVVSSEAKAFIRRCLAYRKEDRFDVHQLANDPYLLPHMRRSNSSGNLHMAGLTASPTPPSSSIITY

[38] = molecular target: Tyrosine-protein kinase TXK (Homo sapiens) (UniProt P42681); assay: Inhibition of TXK assessed as enzyme activity at 1 uM relative to untreated control; parameters: scale not given: the % may be the effect or the level left

Q: Which results are given for `Cc1ccc2c(Nc3ccc(Cl)cc3)nccc2c1Nc1ncccc1-c1ncnc2[nH]cnc12.Cl.Cl.Cl`?
A: IC50 [1]: 1000 nM; Activity [2]: 100%; Activity [3]: 100%; Activity [4]: 100%; Activity [5]: 99%; Activity [6]: 88%; Activity [7]: 97%; Activity [8]: 100%; Activity [9]: 89%; Activity [10]: 86%; Activity [11]: 55%; Activity [12]: 98%; Activity [13]: 100%; Activity [14]: 20%; Activity [15]: 64%; Activity [16]: 100%; Activity [17]: 100%; Activity [18]: 100%; Activity [19]: 100%; Activity [20]: 100%; Activity [21]: 100%; Activity [22]: 78%; Activity [23]: 100%; Activity [24]: 100%; Activity [25]: 6.1%; Activity [26]: 80%; Activity [27]: 62%; Activity [28]: 92%; Activity [29]: 100%; Activity [30]: 100%; Activity [31]: 100%; Activity [32]: 80%; Activity [33]: 99%; Activity [34]: 100%; Activity [35]: 86%; Activity [36]: 100%; Activity [37]: 83%; Activity [38]: 100%
